# From patent US10906905B2, “Five-membered heteroaryl ring bridged ring derivative, preparation method therefor and medical use thereof” (Jiangsu Hengrui Medicine Co., Ltd., priority 2016, dated 2021)
# Biological target: TGFβRI kinase ALK5 (Homo sapiens (Human), UniProt P36897)
# Experiment: Inhibition of TGFβRI kinase ALK5 activity (TGFβRI kinase assay kit, ADP-Glo)
# Type: biochemical
# Conditions: ATP 50 μM; read-out: IC50 of inhibition effect on TGFβRI kinase ALK5 activity
# Description: The inhibition effect of TGFβRI kinase activity in vitro was determined by the following method.
# The inhibition effect of the compounds of the present invention on TGFβRI kinase ALK5 activity was determined by the following experimental method:
# TGFβRI kinase assay kit (V4093, Promega) was used to assay enzyme activity. 2 μl of enzyme solution (the final concentration of enzyme in the reaction system was 2 ng/μL) formulated with reaction buffer (40 mM Tris pH 7.5, 20 mM MgCl2, 0.1 mg/ml BSA), 1 μl of a 3-fold gradient dilution of the compounds dissolved in 5% DMSO, and 2 μl of a mixed solution of ATP and TGFβRI substrate peptide (the final concentration of ATP was 50 μM, and the final concentration of substrate was 0.2 μg/μL) were added successively to a 384-well plate (4514, Corning). After reaction at 27° C. for 2.5 hours, 5 μl of ADP-Glo solution in the kit was added to each well, then the plate was placed at 27° C. for 40 minutes. 10 μl of kinase assay reagent was then added to each well, then the plate was placed at 27° C. for 30 minutes. The chemiluminescence signal values were measured with a Victor 3 (PerkinElmer) multi-function microplate reader. The IC50 values of the compounds for enzyme inhibition were calculated using Graphpad prism software based on each concentration of the compound and the corresponding signal value thereof.
# TGFβRI kinase ALK5, sequence (P36897 34-503): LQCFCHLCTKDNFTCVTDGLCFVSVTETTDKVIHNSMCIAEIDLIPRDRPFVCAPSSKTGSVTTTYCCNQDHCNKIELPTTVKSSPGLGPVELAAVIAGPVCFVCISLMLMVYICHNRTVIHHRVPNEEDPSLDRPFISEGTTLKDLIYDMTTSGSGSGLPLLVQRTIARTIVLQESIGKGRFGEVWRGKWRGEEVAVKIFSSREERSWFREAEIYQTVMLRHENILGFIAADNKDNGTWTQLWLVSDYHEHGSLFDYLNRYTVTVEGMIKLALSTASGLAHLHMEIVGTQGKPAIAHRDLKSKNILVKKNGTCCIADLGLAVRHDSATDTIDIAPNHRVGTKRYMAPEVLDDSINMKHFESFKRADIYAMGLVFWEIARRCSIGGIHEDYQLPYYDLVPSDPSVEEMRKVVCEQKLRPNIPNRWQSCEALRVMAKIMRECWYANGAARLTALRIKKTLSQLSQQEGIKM
row,IC50,Structure (SMILES)
1,0.003 µM,"Cc1cccc(-c2nc3n(c2-c2ccc4nnc(C(N)=O)n4c2)[C@@H]2CC[C@H]3C2)n1 [Example 2-2, 6-((5R,8S)-2-(6-Methylpyridin-2-yl)-5,6,7,8-tetrahydro-5,8-methanoimidazo[1,2-a]pyridin-3-yl)[1,2,4]triazolo[4,3-a]pyridine-3-carboxamide]"
2,0.06 µM,"Cc1cccc(-c2nc3n(c2-c2ccc4nccc(OC5CCNCC5)c4c2)C2CCC3C2)n1 (centres unmarked) [Example 15, 2-(6-Methylpyridin-2-yl)-3-(4-(piperidin-4-yloxy)quinolin-6-yl)-5,6,7,8-tetrahydro-5,8-methanoimidazo[1,2-a]pyridine]"
3,0.038 µM,"Cc1cccc(-c2nc3n(c2-c2ccnc(-c4ccc(C(=O)NC5CCOCC5)cc4)c2)C2CCC3C2)n1 (centres unmarked) [Example 17, 4-(4-(2-(6-Methylpyridin-2-yl)-5,6,7,8-tetrahydro-5,8-methanoimidazo[1,2-a]pyridin-3-yl)pyridin-2-yl)-N-(tetrahydro-2H-pyran-4-yl)benzamide]"
4,0.087 µM,"Cc1cccc(-c2nc3n(c2-c2ccnc(-c4ccc(C(=O)O)cc4)c2)C2CCC3C2)n1 (centres unmarked) [Example 19, 4-(4-(2-(6-Methylpyridin-2-yl)-5,6,7,8-tetrahydro-5,8-methanoimidazo[1,2-a]pyridin-3-yl)pyridin-2-yl)benzoic acid]"
5,0.085 µM,"Cc1cccc(-c2nc3n(c2-c2ccnc4ccc(C(N)=O)cc24)C2CCC3C2)n1 (centres unmarked) [Example 29, 4-(2-(6-Methylpyridin-2-yl)-5,6,7,8-tetrahydro-5,8-methanoimidazo[1,2-a]pyridin-3-yl) quinoline-6-carboxamide]"
6,0.055 µM,"Cc1cccc(-c2nc3n(c2-c2ccnc(NC(=O)OC(C)(C)C)c2)C2CCC3C2)n1 (centres unmarked) [Example 31, Tert-butyl (4-(2-(6-methylpyridin-2-yl)-5,6,7,8-tetrahydro-5,8-methanoimidazo[1,2-a]pyridin-3-yl)pyridin-2-yl)carbamate]"
7,0.012 µM,"Cc1cccc(-c2nn3c(c2-c2ccnc4ccc(C(N)=O)cc24)C2CCC3CC2)n1 [Example 34, 4-(2-(6-Methylpyridin-2-yl)-4,5,6,7-tetrahydro-4,7-ethanopyrazolo[1,5-a]pyridin-3-yl)quinoline-6-carboxamide]"
8,0.012 µM,"Cc1cccc(-c2nn3c(c2-c2ccnc4ccc(C(N)=O)cc24)C2CCC3C2)n1 (centres unmarked) [Example 35, 4-(2-(6-Methylpyridin-2-yl)-4,5,6,7-tetrahydro-4,7-methanopyrazolo[1,5-a]pyridin-3-yl)quinoline-6-carboxamide]"
9,0.028 µM,"NC(=O)c1ccc(-c2cc(-c3c(-c4ccc(F)cn4)nc4n3[C@H]3CC[C@@H]4C3)ccn2)cc1 [Example 41-1, 4-(4-((5S,8R)-2-(5-Fluoropyridin-2-yl)-5,6,7,8-tetrahydro-5,8-methanoimidazo[1,2-a]pyridin-3-yl)pyridin-2-yl)benzamide]"

# System: Smad signaling pathway of TGFβRI
# Experiment: Inhibition of Smad signaling pathway of TGFβRI (3TP-lux luciferase reporter in HepG2 cell)
# Type: cell-based
# Conditions: Homo sapiens; HepG2 cell, 3TP-lux plasmid, 18 hours; read-out: IC50 on the inhibition of Smad signaling pathway of TGFβRI
# Description: The inhibition effect of the compounds of the present invention on Smad signaling pathway of TGFβRI was determined by the following in vitro test.
# The inhibition effect of the compounds of the present invention on Smad signaling pathway of TGFβRI was determined by the following experimental method:
# The seeding density is 2.5×10^4 cells/well. The cells were incubated overnight at 37° C., 5% CO2. Each well was replaced with fresh EMEM medium containing 10% FBS. […] The cells were further incubated for 24 hours at 37° C., 5% CO2. Each well was replaced with 90 μL of EMEM medium containing 0.5% FBS, then the cells were starved for 6 hours. The compounds were formulated as a 20 mM stock solution, which was diluted in gradient to a 400× concentration with 100% DMSO, and further 40-fold diluted with EMEM containing 0.5% FBS. The cell culture plate was taken out, then 10 μl of diluted compound or control (0.25% DMSO) was added to each well respectively. The plate was shaken gently, then incubated for 18 hours in an incubator at 37° C., 5% CO2. Finally, 100 μl of detection reagent ONE-Glo™ Luciferase Assay (E6110, Promega) was added to each well, and the plate was placed in dark at room temperature for 10 minutes. The chemiluminescence signal values were measured with a Victor 3.0 (PerkinElmer). The IC50 values of the compounds were calculated using Graphpad Prism software based on each concentration of the compound and the corresponding signal value thereof.
row,IC50,Structure (SMILES)
1,0.036 µM,"Cc1cccc(-c2nc3n(c2-c2ccc4nnc(C(N)=O)n4c2)[C@@H]2CC[C@H]3C2)n1 [Example 2-2, 6-((5R,8S)-2-(6-Methylpyridin-2-yl)-5,6,7,8-tetrahydro-5,8-methanoimidazo[1,2-a]pyridin-3-yl)[1,2,4]triazolo[4,3-a]pyridine-3-carboxamide]"
2,0.058 µM,"Cc1cccc(-c2nc3n(c2-c2ccnc(-c4ccc(S(C)(=O)=O)cc4)c2)C2CCC3C2)n1 (centres unmarked) [Example 3, 2-(6-Methylpyridin-2-yl)-3-(2-(4-(methylsulfonyl)phenyl)pyridin-4-yl)-5,6,7,8-tetrahydro-5,8-methanoimidazo[1,2-a]pyridine]"
3,0.053 µM,"Cc1cccc(-c2nc3n(c2-c2ccc(=O)n(C)c2)C2CCC3C2)n1 (centres unmarked) [Example 20, 1-Methyl-5-(2-(6-methylpyridin-2-yl)-5,6,7,8-tetrahydro-5,8-methanoimidazo[1,2-a]pyridin-3-yl)pyridin-2(1H)-one]"
4,0.086 µM,"Cc1cccc(-c2nc3n(c2-c2ccnc(OCCO)c2)C2CCC3C2)n1 (centres unmarked) [Example 26, 2-((4-(2-(6-Methylpyridin-2-yl)-5,6,7,8-tetrahydro-5,8-methanoimidazo[1,2-a]pyridin-3-yl)pyridin-2-yl)oxy)ethanol]"
5,0.061 µM,"Cc1cccc(-c2nn3c(c2-c2ccnc(NCCO)c2)C2CCC3CC2)n1 [Example 37, 2-((4-(2-(6-Methylpyridin-2-yl)-4,5,6,7-tetrahydro-4,7-ethanopyrazolo[1,5-a]pyridin-3-yl)pyridin-2-yl)amino)ethanol]"
